Species: Rattus norvegicus
Assay: Open TG-GATES - Regimen: Single
Format: toxicity, organism-based, Sprague-Dawley
Set-up: regimen Single, gender Male, age 6 weeks
Conditions: in vivo, po, 0 mg/kg, route gavage, dose level Control; for APTT / Bas / Eos / Fbg / Hb / Ht / Lym / MCH / MCHC / MCV / Mono / Neu / PT / Plat / RBC / Ret / WBC: tissue Blood; for KIDNEY_L / KIDNEY_R / KIDNEY_TOTAL: tissue Kidney; for LIVER: tissue Liver

## CC(=O)N1CCN(c2ccc(OCC3COC(Cn4ccnc4)(c4ccc(Cl)cc4Cl)O3)cc2)CC1 (stereo not given) [KETOCONAZOLE]
3 h
  TERMINAL_BW: 204 g
  APTT: 20.5 s
  Bas: 0%
  Eos: 0.8%
  Fbg: 282.4 mg/dL
  Hb: 12.8 g/dL
  Ht: 38.4%
  Lym: 76.4%
  MCH: 21.5 pg
  MCHC: 33.4%
  MCV: 64.4 fL
  Mono: 1.6%
  Neu: 19.8%
  PT: 16.9 s
  Plat: 117 x10_4/uL
  RBC: 596.2 x10_4/ul
  Ret: 8.8%
  WBC: 73.4 x10_2/uL
  KIDNEY_L: 0.9 g
  KIDNEY_R: 0.9 g
  KIDNEY_TOTAL: 1.9 g
  LIVER: 9.8 g
3 h, tissue Plasma
  ALP: 1856.6 IU/L
  AST: 76.2 IU/L
  BUN: 13.2 mg/dL
  CRE: 0.2 mg/dL
  Ca: 11 mg/dL
  Cl: 104.8 meq/L
  DBIL: 0.004 mg/dL
  GLC: 175.4 mg/dL
  IP: 7.9 mg/dL
  LDH: 167.6 IU/L
  Na: 141.8 meq/L
  PL: 135 mg/dL
  RALB: 2.9 g/dL
  TBIL: 0.016 mg/dL
  TC: 74.8 mg/dL
  TG: 63.2 mg/dL
  TP: 5.4 g/dL
  gamma-GTP: 1 IU/L
6 h
  TERMINAL_BW: 204.2 g
  APTT: 21.3 s
  Bas: 0%
  Eos: 0.8%
  Fbg: 293.6 mg/dL
  Hb: 13.2 g/dL
  Ht: 39.7%
  Lym: 83.2%
  MCH: 21.5 pg
  MCHC: 33.2%
  MCV: 64.7 fL
  Mono: 1.8%
  Neu: 13.4%
  PT: 16.9 s
  Plat: 122.1 x10_4/uL
  RBC: 613.4 x10_4/ul
  Ret: 8.4%
  WBC: 78.2 x10_2/uL
  KIDNEY_L: 1 g
  KIDNEY_R: 1 g
  KIDNEY_TOTAL: 1.9 g
  LIVER: 9.1 g
6 h, tissue Plasma
  ALP: 1433 IU/L
  AST: 71 IU/L
  BUN: 9.6 mg/dL
  CRE: 0.2 mg/dL
  Ca: 10.8 mg/dL
  Cl: 105.6 meq/L
  DBIL: 0 mg/dL
  GLC: 176.8 mg/dL
  IP: 8.4 mg/dL
  LDH: 197.4 IU/L
  Na: 141.2 meq/L
  PL: 124.2 mg/dL
  RALB: 2.9 g/dL
  TBIL: 0.022 mg/dL
  TC: 67.6 mg/dL
  TG: 47.6 mg/dL
  TP: 5.4 g/dL
  gamma-GTP: 1 IU/L
9 h
  TERMINAL_BW: 201.8 g
  APTT: 21.3 s
  Bas: 0%
  Eos: 1.2%
  Fbg: 294.4 mg/dL
  Hb: 13 g/dL
  Ht: 38.9%
  Lym: 75%
  MCH: 21.1 pg
  MCHC: 33.3%
  MCV: 63.3 fL
  Mono: 1.8%
  Neu: 21.4%
  PT: 16.4 s
  Plat: 138.7 x10_4/uL
  RBC: 615.6 x10_4/ul
  Ret: 7.7%
  WBC: 69.1 x10_2/uL
  KIDNEY_L: 1 g
  KIDNEY_R: 1 g
  KIDNEY_TOTAL: 1.9 g
  LIVER: 8.6 g
9 h, tissue Plasma
  ALP: 1580.4 IU/L
  AST: 75 IU/L
  BUN: 10.2 mg/dL
  CRE: 0.2 mg/dL
  Ca: 10.4 mg/dL
  Cl: 106 meq/L
  DBIL: 0.008 mg/dL
  GLC: 180.4 mg/dL
  IP: 9.5 mg/dL
  LDH: 227.2 IU/L
  Na: 142.2 meq/L
  PL: 125.6 mg/dL
  RALB: 3.1 g/dL
  TBIL: 0.026 mg/dL
  TC: 67.2 mg/dL
  TG: 52.6 mg/dL
  TP: 5.5 g/dL
  gamma-GTP: 1 IU/L
24 h
  TERMINAL_BW: 213.9 g
  APTT: 19.8 s
  Bas: 0%
  Eos: 0.8%
  Fbg: 307.2 mg/dL
  Hb: 13.3 g/dL
  Ht: 38.9%
  Lym: 77.6%
  MCH: 21.8 pg
  MCHC: 34.2%
  MCV: 63.9 fL
  Mono: 2%
  Neu: 19%
  PT: 16.7 s
  Plat: 117.4 x10_4/uL
  RBC: 609 x10_4/ul
  Ret: 7.5%
  WBC: 70.3 x10_2/uL
  KIDNEY_L: 1 g
  KIDNEY_R: 1 g
  KIDNEY_TOTAL: 2 g
  LIVER: 10.4 g
24 h, tissue Plasma
  ALP: 1980.8 IU/L
  ALT: 44 IU/L
  AST: 73.2 IU/L
  BUN: 16.4 mg/dL
  CRE: 0.2 mg/dL
  Ca: 10.7 mg/dL
  Cl: 107.2 meq/L
  DBIL: 0 mg/dL
  GLC: 185.6 mg/dL
  IP: 6.5 mg/dL
  LDH: 211.2 IU/L
  Na: 142.2 meq/L
  PL: 147 mg/dL
  RALB: 3.1 g/dL
  TBIL: 0.002 mg/dL
  TC: 76.6 mg/dL
  TG: 107.6 mg/dL
  TP: 5.6 g/dL

Source: ChEMBL document CHEMBL3885861, “Open TG-GATES”
